From patent US9840478B2 (MERCK SHARP & DOHME CORP., priority 2013, dated 2017) come the findings set out here.

Molecules are shown by their SMILES.

The test relates to HIV-1 (H9IIIB strain). Nature of the test: Cell-based HIV infection assay using a reporter (Cell-Based), MT4-GFP cells. The conditions noted are these: Human immunodeficiency virus 1, MT4-GFP cells infected with HIV-1 H9IIIB; 50% normal human serum; mean of at least two independent experiments; read-out: Cell-based IP. In short, it runs like this: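 MT4-GFP cells (HIV LTR-driven GFP) infected 24 h with HIV-1 H9IIIB at low MOI, then washed and plated with compounds in RPMI + 50% normal human serum, 0.4% DMSO final. Green cells counted at 24 and 48 h; R0 = 48 h/24 h ratio, inhibition normalized to DMSO and triple-drug control; IC50 from 4-parameter fit.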
As to `CC(C)[C@H](c1ccc(Cl)cc1)[C@H](N)C(=O)Nc1cccc(F)c1CC[C@H]1CNC[C@@H](C)N1S(=O)(=O)c1ccccc1` [Example 110, (βR)-4-chloro-N-(3-fluoro-2-{2-[(2S,6R)-6-methyl-1-(phenylsulfonyl)piperazin-2-yl]ethyl}phenyl)-β-(1-methylethyl)-L-phenylalaninamide], the IC50 is 74 nM.
Under `COC(=O)N[C@H](C(=O)Nc1cccc(F)c1CC[C@H]1CNC[C@H](C)N1S(=O)(=O)c1ccccc1)[C@@H](c1ccc(Cl)cc1)C(C)C` [Example 111, (βR)-4-chloro-N-(3-fluoro-2-{2-[(2S,6S)-6-methyl-1-(phenylsulfonyl)piperazin-2-yl]ethyl}phenyl)-Nα-(methoxycarbonyl)-β-(1-methylethyl)-L-phenylalaninamide] stands 34 nM; under `COC(=O)N[C@H](C(=O)Nc1cccc(F)c1CC[C@H]1CNC[C@@H](C)N1S(=O)(=O)c1ccccc1)[C@@H](c1ccc(Cl)cc1)C(C)C` [Example 112, (βR)-4-chloro-N-(3-fluoro-2-{2-[(2S,6R)-6-methyl-1-(phenylsulfonyl)piperazin-2-yl]ethyl}phenyl)-Nα-(methoxycarbonyl)-β-(1-methylethyl)-L-phenylalaninamide], 19 nM; under `C[C@H]1CNC[C@H](CCc2c(F)cncc2NC(=O)[C@@H](N)[C@@H](c2ccc(Cl)cc2)c2cccc(F)c2)N1S(=O)(=O)c1ccccc1` [Example 113, (βS)-β-(4-chlorophenyl)-3-fluoro-N-(5-fluoro-4-{2-[(2S,6S)-6-methyl-1-(phenylsulfonyl)piperazin-2-yl]ethyl}pyridin-3-yl)-L-phenylalaninamide], 25 nM.
Then `C[C@H]1CNC[C@H](CCc2c(F)cccc2NC(=O)[C@@H](N)[C@@H](c2ccc(F)cc2)C2CCOCC2)N1S(=O)(=O)C1CC1` [Example 114, (βR)-N-(2-{2-[(2S,6S)-1-(cyclopropylsulfonyl)-6-methylpiperazin-2-yl]ethyl}-3-fluorophenyl)-4-fluoro-β-(tetrahydro-2H-pyran-4-yl)-L-phenylalaninamide], with 100 nM.
Under `COC(=O)N[C@H](C(=O)Nc1cccc(F)c1CC[C@H]1CNC[C@H](C)N1S(=O)(=O)C1CC1)[C@@H](c1ccc(F)cc1)C1CCOCC1` [Example 115, (βR)-N-(2-{2-[(2S,6S)-1-(cyclopropylsulfonyl)-6-methylpiperazin-2-yl]ethyl}-3-fluorophenyl)-4-fluoro-Nα-(methoxycarbonyl)-β-(tetrahydro-2H-pyran-4-yl)-L-phenylalaninamide] stands 45 nM; under `C[C@@H]1CNC[C@H](CCc2c(F)cccc2NC(=O)[C@@H](N)[C@@H](c2ccc(Cl)cc2)C2CCOCC2)N1S(=O)(=O)c1ccccc1` [Example 116, (βR)-4-chloro-N-(3-fluoro-2-{2-[(2S,6R)-6-methyl-1-(phenylsulfonyl)piperazin-2-yl]ethyl}phenyl)-β-(tetrahydro-2H-pyran-4-yl)-L-phenylalaninamide], 24 nM; under `COC(=O)N[C@H](C(=O)Nc1cccc(F)c1CC[C@H]1CNC[C@@H](C)N1S(=O)(=O)c1ccccc1)[C@@H](c1ccc(Cl)cc1)C1CCOCC1` [Example 117, (βR)-4-chloro-N-(3-fluoro-2-{2-[(2S,6R)-6-methyl-1-(phenylsulfonyl)piperazin-2-yl]ethyl}phenyl)-Nα-(methoxycarbonyl)-β-(tetrahydro-2H-pyran-4-yl)-L-phenylalaninamide], 9.3 nM.
`COc1ccc([C@H](c2ccc(Cl)cc2)[C@H](N)C(=O)Nc2cccc(F)c2CC[C@H]2CNC[C@H](C)N2S(=O)(=O)c2ccccc2)cn1` [Example 118, (βS)-4-chloro-N-(3-fluoro-2-{2-[(2S,6S)-6-methyl-1-(phenylsulfonyl)piperazin-2-yl]ethyl}phenyl)-β-(6-methoxypyridin-3-yl)-L-phenylalaninamide]: the IC50 was 12 nM.
Under `COC(=O)N[C@H](C(=O)Nc1cccc(F)c1CC[C@H]1CNC[C@H](C)N1S(=O)(=O)c1ccccc1)[C@@H](c1ccc(Cl)cc1)c1ccc(OC)nc1` [Example 119, (βS)-4-chloro-N-(3-fluoro-2-{2-[(2S,6S)-6-methyl-1-(phenylsulfonyl)piperazin-2-yl]ethyl}phenyl)-Nα-(methoxycarbonyl)-β-(6-methoxypyridin-3-yl)-L-phenylalaninamide] stands 9.1 nM.
Then `COC(=O)N[C@H](C(=O)Nc1cccc(F)c1CC[C@H]1CNC[C@@H](C)N1S(=O)(=O)c1ccccc1)[C@@H](c1ccc(Cl)cc1)c1ccc(OC)nc1` [Example 120, (βS)-4-chloro-N-(3-fluoro-2-{2-[(2S,6R)-6-methyl-1-(phenylsulfonyl)piperazin-2-yl]ethyl}phenyl)-Nα-(methoxycarbonyl)-β-(6-methoxypyridin-3-yl)-L-phenylalaninamide], with 19 nM.
Under `C[C@H]1CNC[C@H](CCc2c(F)cccc2NC(=O)[C@@H](N)[C@@H](c2ccc(Cl)cc2)C2CCOCC2)N1S(C)(=O)=O` [Example 121, (βR)-4-chloro-N-(3-fluoro-2-{2-[(2S,6S)-6-methyl-1-(methylsulfonyl)piperazin-2-yl]ethyl}phenyl)-β-(tetrahydro-2H-pyran-4-yl)-L-phenylalaninamide] stands 72 nM.
Take `CC(C)[C@H](c1ccc(Cl)cc1)[C@H](N)C(=O)Nc1cccc(F)c1CC[C@H]1CNC[C@H](C)N1S(C)(=O)=O` [Example 122, (βR)-4-chloro-N-(3-fluoro-2-{2-[(2S,6S)-6-methyl-1-(methylsulfonyl)piperazin-2-yl]ethyl}phenyl)-β-(1-methylethyl)-L-phenylalaninamide]: the IC50 was 360 nM.
Then `COC(=O)N[C@H](C(=O)Nc1cccc(F)c1CC[C@H]1CNC[C@H](C)N1S(C)(=O)=O)[C@@H](c1ccc(Cl)cc1)C(C)C` [Example 123, (βR)-4-chloro-N-(3-fluoro-2-{2-[(2S,6S)-6-methyl-1-(methylsulfonyl)piperazin-2-yl]ethyl}phenyl)-Nα-(methoxycarbonyl)-β-(1-methylethyl)-L-phenylalaninamide], with 62 nM; and `COc1ccc(S(=O)(=O)N2[C@@H](CCc3c(F)cccc3NC(=O)[C@@H](N)[C@@H](c3ccc(Cl)cc3)C(C)C)CNC[C@@H]2C)cc1` [Example 124, (βR)-4-chloro-N-[3-fluoro-2-(2-{(2S,6S)-1-[(4-methoxyphenyl)sulfonyl]-6-methylpiperazin-2-yl}ethyl)phenyl]-β-(1-methylethyl)-L-phenylalaninamide], with 63 nM; and `COC(=O)N[C@H](C(=O)Nc1cccc(F)c1CC[C@H]1CNC[C@H](C)N1S(=O)(=O)c1ccc(OC)cc1)[C@@H](c1ccc(Cl)cc1)C(C)C` [Example 125, (βR)-4-chloro-N-[3-fluoro-2-(2-{(2S,6S)-1-[(4-methoxyphenyl)sulfonyl]-6-methylpiperazin-2-yl}ethyl)phenyl]-Nα-(methoxycarbonyl)-β-(1-methylethyl)-L-phenylalaninamide], with 18 nM.
Then `CC(C)[C@H](c1ccc(Cl)cc1)[C@H](N)C(=O)Nc1cncc(F)c1CC[C@H]1CNC[C@H](C)N1S(=O)(=O)c1ccccc1` [Example 126, (βR)-4-chloro-N-(5-fluoro-4-{2-[(2S,6S)-6-methyl-1-(phenylsulfonyl)piperazin-2-yl]ethyl}pyridin-3-yl)-β-(1-methylethyl)-L-phenylalaninamide], with 16 nM; and `CC(C)[C@H](c1ccc(Cl)cc1)[C@H](N)C(=O)Nc1cccc(F)c1CC[C@H]1CNC[C@H](C)N1S(=O)(=O)C1CC1` [Example 127, (βR)-4-chloro-N-(2-{2-[(2S,6S)-1-(cyclopropylsulfonyl)-6-methylpiperazin-2-yl]ethyl}-3-fluorophenyl)-β-(1-methylethyl)-L-phenylalaninamide], with 300 nM.
Then `CC(C)[C@H](c1ccc(Cl)cc1)[C@H](N)C(=O)Nc1cccc(F)c1CC[C@H]1CNC[C@@H](C)N1S(=O)(=O)C1CC1` [Example 128, (βR)-4-chloro-N-(2-{2-[(2S,6R)-1-(cyclopropylsulfonyl)-6-methylpiperazin-2-yl]ethyl}-3-fluorophenyl)-β-(1-methylethyl)-L-phenylalaninamide], with 610 nM; and `C[C@H]1CNC[C@H](CCc2c(F)cccc2NC(=O)[C@@H](N)[C@@H](c2ccc(F)cc2)C2CCOCC2)N1S(C)(=O)=O` [Example 129, (βR)-4-fluoro-N-(3-fluoro-2-{2-[(2S,6S)-6-methyl-1-(methylsulfonyl)piperazin-2-yl]ethyl}phenyl)-β-(tetrahydro-2H-pyran-4-yl)-L-phenylalaninamide], with 210 nM; and `COC(=O)N[C@H](C(=O)Nc1cccc(F)c1CC[C@H]1CNC[C@H](C)N1S(C)(=O)=O)[C@@H](c1ccc(F)cc1)C1CCOCC1` [Example 130, (βR)-4-fluoro-N-(3-fluoro-2-{2-[(2S,6S)-6-methyl-1-(methylsulfonyl)piperazin-2-yl]ethyl}phenyl)-Nα-(methoxycarbonyl)-β-(tetrahydro-2H-pyran-4-yl)-L-phenylalaninamide], with 55 nM.
Consider `C[C@H]1CNC[C@H](CCc2c(F)cccc2NC(=O)[C@@H](N)[C@@H](c2ccc(Cl)cc2)C2CCOCC2)N1S(=O)(=O)c1ccccc1` [Example 131, (βR)-4-chloro-N-(3-fluoro-2-{2-[(2S,6S)-6-methyl-1-(phenylsulfonyl)piperazin-2-yl]ethyl}phenyl)-β-(tetrahydro-2H-pyran-4-yl)-L-phenylalaninamide], for which the IC50 stood at 17 nM.
Under `COC(=O)N[C@H](C(=O)Nc1cccc(F)c1CC[C@H]1CNC[C@H](C)N1S(=O)(=O)c1ccccc1)[C@@H](c1ccc(Cl)cc1)C1CCOCC1` [Example 132, (βR)-4-chloro-N-(3-fluoro-2-{2-[(2S,6S)-6-methyl-1-(phenylsulfonyl)piperazin-2-yl]ethyl}phenyl)-Nα-(methoxycarbonyl)-β-(tetrahydro-2H-pyran-4-yl)-L-phenylalaninamide] stands 11 nM.
